Patent US8598357B2, “Benzodioxole piperidine compounds” (Hoffmann-La Roche Inc., priority 2011, dated 2013)
Where two headings read alike, the source gives them in different places.

What was measured:
D3 receptor = D3 receptor (Homo sapiens (Human), UniProt P35462); test: Radioligand binding assay ([3H]-spiperone) on membranes of HEK293 EBNA cells expressing human D3 receptor
Procedure: (§1) HEK293 EBNA cells were transiently transfected with expression plasmids encoding for the human D2 or D3 or for the human 5-HT2A receptor, respectively. The cells were harvested 48 h post-transfection, washed three times with cold PBS and stored at −80° C. prior to use. The pellet was suspended in cold 50 mM Tris-HCl buffer containing 10 mM EDTA (pH 7.4) and was homogenized with a Polytron (Kinematica AG, Basel, Switzerland) for 20-30 sec at 12.000 rpm. After centrifugation at 48.000×g for 30 min at 4° C., the pellet was resuspended in cold 10 mM Tris-HCl buffer containing 0.1 mM EDTA (pH 7.4), homogenized, and centrifuged as above. This pellet was further resuspended in a smaller volume of ice cold 10 mM Tris-HCl buffer containing 0.1 mM EDTA (pH 7.4) and homogenized with a Polytron for 20-30 sec at 12.000 rpm. The protein content of this homogenate was determined with the Bio-Rad (Bradford) Protein Assay (Biorad Laboratories GmbH, München, Germany) according to the instructions of the manufacturer using gamma globulin as the standard. This homogenate was stored at −80° C. in aliquots and thawed immediately prior to use.
(§2) Aliquots of membrane preparations were thawed at RT, resuspended in assay buffer (D2, D3: 50 mM Tris-HCl, 120 mM NaCl, 5 mM MgCl2, 1 mM EDTA, 5 mM KCl, 1.5 mM CaCl2, pH=7.4; 5-HT2A: 50 mM Tris-HCl, 10 mM MgCl2, 1 mM EGTA, pH=7.4), homogenized with a Polytron for 20-30 sec at 12.000 rpm and adjusted to a final concentration of approximately 7.5 μg protein/well (D2, D3) and 15 μg protein/well (5-HT2A), respectively.
(§3) The nonspecific binding was determined with equally composed reaction mixtures in the presence of 10 μM unlabelled spiperone. Per well 45 μl of Microscint 40 (Perkin Elmer, Schwerzenbach, Switzerland) was added, plates for sealed, shaken for 20 min and counted for 3 min on a Topcount Microplate Scintillation Counter (Can berra Packard SA, Ziirich, Switzerland) with quenching correction.
(§4) The CPM value for each duplicate of a concentration of competing compound was averaged (y1), then the % specific binding was calculated according to the equation (((y1−non-specific)/(total binding−non-specific))×100). Graphs were plotted with the % specific binding using XLfit, a curve fitting program that iteratively plots the data using Levenberg-Marquardt algorithm. The single site competition analysis equation used was y=A+((B−A)/(1+((x/C)D))), where y is the % specific binding, A is the minimum y, B is the maximum y, C is the IC50, x is the log 10 of the concentration of the competing compound and D is the slope of the curve (the Hill Coefficient). […] The affinity constant (K) was calculated using the Cheng-Prusoff equation Ki=(IC50/1+([L]/Kd), where [L] is the concentration of radioligand and Kd is the dissociation constant of the radioligand at the receptor as determined by the saturation isotherm.

D2 receptor = D2 receptor (Homo sapiens (Human), UniProt P14416); test: Radioligand binding assay ([3H]-spiperone) on membranes of HEK293 EBNA cells expressing human D2 receptor; conditions: human receptor in HEK293 EBNA cells; 0.7 nM [3H]-spiperone
Chain of D2 receptor (P14416 whole entry): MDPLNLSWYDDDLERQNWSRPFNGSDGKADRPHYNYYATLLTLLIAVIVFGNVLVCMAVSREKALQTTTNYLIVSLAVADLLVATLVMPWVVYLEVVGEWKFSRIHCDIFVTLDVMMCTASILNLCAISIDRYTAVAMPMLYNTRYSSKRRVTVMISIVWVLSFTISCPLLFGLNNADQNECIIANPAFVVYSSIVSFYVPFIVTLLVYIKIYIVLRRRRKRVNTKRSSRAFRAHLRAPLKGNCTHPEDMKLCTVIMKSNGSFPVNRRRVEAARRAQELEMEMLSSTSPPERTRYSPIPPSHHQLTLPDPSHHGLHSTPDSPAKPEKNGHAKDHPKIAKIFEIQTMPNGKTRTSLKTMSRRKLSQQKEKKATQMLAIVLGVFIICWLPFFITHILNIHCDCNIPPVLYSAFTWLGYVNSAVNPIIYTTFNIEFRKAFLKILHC

5-HT2A receptor = 5-HT2A receptor (Homo sapiens (Human), UniProt P28223); test: Radioligand binding assay ([3H]-ketanserin) on membranes of HEK293 EBNA cells expressing human 5-HT2A receptor
Procedure: as §1, §2, §3, §4

[1] = read-out: D3 Ki, human receptor in HEK293 EBNA cells, 0.5 nM [3H]-spiperone
[2] = read-out: 5HT2A Ki, human receptor in HEK293 EBNA cells, 1.1 nM [3H]-ketanserin

Chain of D3 receptor (P35462 whole entry): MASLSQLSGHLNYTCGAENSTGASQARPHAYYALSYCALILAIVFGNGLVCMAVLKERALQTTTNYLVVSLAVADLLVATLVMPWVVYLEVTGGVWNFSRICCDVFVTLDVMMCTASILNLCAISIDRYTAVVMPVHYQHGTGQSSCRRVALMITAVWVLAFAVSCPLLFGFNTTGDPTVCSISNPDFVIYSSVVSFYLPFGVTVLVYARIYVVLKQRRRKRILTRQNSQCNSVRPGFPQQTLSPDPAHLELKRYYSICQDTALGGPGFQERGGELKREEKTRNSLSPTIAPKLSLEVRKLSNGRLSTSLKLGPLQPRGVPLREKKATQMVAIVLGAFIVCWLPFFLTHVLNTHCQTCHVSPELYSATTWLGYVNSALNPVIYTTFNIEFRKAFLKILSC

CO[C@@H](C)C(=O)N[C@H]1CC[C@H](CCN2CCC(c3cccc4c3OCO4)CC2)CC1 [Example 33, Trans-(S)—N-{4-[2-(4-Benzo[1,3]dioxol-4-yl-piperidin-1-yl)-ethyl]-cyclohexyl}-2-methoxy-propionamide]
Ki (D3 receptor; [1]): 0.0503 µM
Ki (D2 receptor): 0.464 µM
Ki (5-HT2A receptor; [2]): 0.0291 µM

O=S(=O)(N[C@H]1CC[C@H](CCN2CCC(c3cccc4c3OCO4)CC2)CC1)c1ccccc1 [Example 70, Trans-N-{4-[2-(4-Benzo[1,3]dioxol-4-yl-piperidin-1-yl)-ethyl]cyclohexyl}-benzenesulfonamide]
Ki (D3 receptor; [1]): 0.00365 µM
Ki (D2 receptor): 0.0635 µM
Ki (5-HT2A receptor; read-out: 5HT2A Ki): 0.0522 µM

COCCC(=O)N[C@H]1CC[C@H](CCN2CCC(c3cccc4c3OCO4)CC2)CC1 [Example 2, Trans-N-{4-[2-(4-Benzo[1,3]dioxol-4-yl-piperidin-1-yl)-ethyl]-cyclohexyl}-3-methoxy-propionamide]
Ki (D3 receptor; [1]): 0.00582 µM
Ki (D2 receptor): 0.427 µM
Ki (5-HT2A receptor; [2]): 0.0382 µM

O=C(CC1COC1)N[C@H]1CC[C@H](CCN2CCC(c3cccc4c3OCO4)CC2)CC1 [Example 29, Trans-N-{4-[2-(4-Benzo[1,3]dioxol-4-yl-piperidin-1-yl)-ethyl]cyclohexyl}-2-oxetan-3-yl-acetamide]
Ki (D3 receptor; [1]): 0.00519 µM
Ki (D2 receptor): 0.258 µM
Ki (5-HT2A receptor; [2]): 0.0219 µM

O=C(N[C@H]1CC[C@H](CCN2CCC(c3cccc4c3OCO4)CC2)CC1)c1ccc(N2CCOCC2)cc1 [Example 56, Trans-N-{-4-[2-(4-Benzo[1,3]dioxol-4-yl-piperidin-1-yl)-ethyl]-cyclohexyl}-4-morpholin-4-yl-benzamide]
Ki (D3 receptor; [1]): 0.0101 µM
Ki (D2 receptor): 0.593 µM
Ki (5-HT2A receptor; [2]): 0.0185 µM

O=C(CC1CC1)N[C@H]1CC[C@H](CCN2CCC(c3cccc4c3OCO4)CC2)CC1 [Example 8, Trans-N-{4-[2-(4-Benzo[1,3]dioxol-4-yl-piperidin-1-yl)-ethyl]-cyclohexyl}-2-cyclopropyl-acetamide]
Ki (D3 receptor; [1]): 0.00254 µM
Ki (D2 receptor): 0.303 µM
Ki (5-HT2A receptor; [2]): 0.0176 µM

O=C(CCC(F)(F)F)N[C@H]1CC[C@H](CCN2CCC(c3cccc4c3OCO4)CC2)CC1 [Example 11, Trans-N-{4-[2-(4-Benzo[1,3]dioxol-4-yl-piperidin-1-yl)-ethyl]-cyclohexyl}-4,4,4-trifluoro-butyramide]
Ki (D3 receptor; [1]): 0.00774 µM
Ki (D2 receptor): 0.41 µM
Ki (5-HT2A receptor; [2]): 0.032 µM

CN1CCN(CC(=O)N[C@H]2CC[C@H](CCN3CCC(c4cccc5c4OCO5)CC3)CC2)CC1 [Example 68, Trans-N-{4-[2-(4-Benzo[1,3]dioxol-4-yl-piperidin-1-yl)-ethyl]-cyclohexyl}-2-(4-methylpiperazin-1-yl)-acetamide]
Ki (D3 receptor; [1]): 0.0198 µM
Ki (D2 receptor): 0.104 µM
Ki (5-HT2A receptor; [2]): 0.031 µM

O=C(N[C@H]1CC[C@H](CCN2CCC(c3cccc4c3OCO4)CC2)CC1)c1ccc2c(c1)OCCO2 [Example 58, 2,3-Dihydro-benzo[1,4]dioxine-6-carboxylic acid-trans-N-{4-[2-(4-benzo[1,3]dioxol-4-yl-piperidin-1-yl)-ethyl]-cyclohexyl}-amide]
Ki (D3 receptor; [1]): 0.0037 µM
Ki (D2 receptor): 0.345 µM
Ki (5-HT2A receptor; read-out: 5HT2A Ki): 0.0201 µM

O=C(N[C@H]1CC[C@H](CCN2CCC(c3cccc4c3OCO4)CC2)CC1)C1(C(F)(F)F)CC1 [Example 50, Trifluoromethyl-cyclopropanecarboxylic acid-trans-N-{4-[2-(4-benzo[1,3]dioxol-4-yl-piperidin-1-yl)-ethyl]-cyclohexyl}-amide]
Ki (D3 receptor; [1]): 0.0409 µM
Ki (D2 receptor): 0.246 µM
Ki (5-HT2A receptor; [2]): 0.019 µM

O=C(CC1(O)CCOCC1)N[C@H]1CC[C@H](CCN2CCC(c3cccc4c3OCO4)CC2)CC1 [Example 31, Trans-N-{4-[2-(4-Benzo[1,3]dioxol-4-yl-piperidin-1-yl)-ethyl]-cyclohexyl}-2-(4-hydroxy-tetrahydro-pyran-4-yl)-acetamide]
Ki (D3 receptor; [1]): 0.00715 µM
Ki (D2 receptor): 0.306 µM
Ki (5-HT2A receptor; [2]): 0.0249 µM

CCC(=O)N[C@H]1CC[C@H](CCN2CCC(c3cccc4c3OCO4)CC2)CC1 [Example 7, Trans-N-{4-[2-(4-Benzo[1,3]dioxol-4-yl-piperidin-1-yl)-ethyl]-cyclohexyl}-propionamide]
Ki (D3 receptor; [1]): 0.00419 µM
Ki (D2 receptor): 0.204 µM
Ki (5-HT2A receptor; [2]): 0.0166 µM

COC(=O)N[C@H]1CC[C@H](CCN2CCC(c3cccc4c3OCO4)CC2)CC1 [Example 18, Trans-{4-[2-(4-Benzo[1,3]dioxol-4-yl-piperidin-1-yl)-ethyl]-cyclohexyl}-carbamic acid methyl ester]
Ki (D3 receptor; [1]): 0.00326 µM
Ki (D2 receptor): 0.133 µM
Ki (5-HT2A receptor; read-out: 5HT2A Ki): 0.0218 µM

CS(=O)(=O)CC(=O)N[C@H]1CC[C@H](CCN2CCC(c3cccc4c3OCO4)CC2)CC1 [Example 55, Trans-N-{4-[2-(4-Benzo[1,3]dioxol-4-yl-piperidin-1-yl)-ethyl]cyclohexyl}-2-methanesulfonyl-acetamide]
Ki (D3 receptor; [1]): 0.00463 µM
Ki (D2 receptor): 0.165 µM
Ki (5-HT2A receptor; [2]): 0.027 µM

O=C(CC1(O)CCC1)N[C@H]1CC[C@H](CCN2CCC(c3cccc4c3OCO4)CC2)CC1 [Example 45, Trans-N-{4-[2-(4-Benzo[1,3]dioxol-4-yl-piperidin-1-yl)-ethyl]-cyclohexyl}-2-(1-hydroxy-cyclobutyl)-acetamide]
Ki (D3 receptor; [1]): 0.00641 µM
Ki (D2 receptor): 0.262 µM
Ki (5-HT2A receptor; read-out: 5HT2A Ki): 0.0268 µM

Cc1ccc(C(=O)N[C@H]2CC[C@H](CCN3CCC(c4cccc5c4OCO5)CC3)CC2)cn1 [Example 15, Trans-N-{4-[2-(4-Benzo[1,3]dioxol-4-yl-piperidin-1-yl)-ethyl]-cyclohexyl}-6-methyl-nicotinamide]
Ki (D3 receptor; [1]): 0.0116 µM
Ki (D2 receptor): 0.133 µM
Ki (5-HT2A receptor; [2]): 0.0115 µM

CC1(C(=O)N[C@H]2CC[C@H](CCN3CCC(c4cccc5c4OCO5)CC3)CC2)COC1 [Example 62, 3-Methyl-oxetane-3-carboxylic acid-trans-N-{4-[2-(4-benzo[1,3]dioxol-4-yl-piperidin-1-yl)-ethyl]-cyclohexyl}-amide]
Ki (D3 receptor; [1]): 0.039 µM
Ki (D2 receptor): 0.225 µM
Ki (5-HT2A receptor; [2]): 0.0221 µM

O=S(=O)(N[C@H]1CC[C@H](CCN2CCC(c3cccc4c3OCO4)CC2)CC1)c1ccc(F)cc1 [Example 71, N-trans-{4-[2-(4-Benzo[1,3]dioxol-4-yl-piperidin-1-yl)-ethyl]-cyclohexyl}-4-fluoro-benzenesulfonamide]
Ki (D3 receptor; [1]): 0.00263 µM
Ki (D2 receptor): 0.104 µM
Ki (5-HT2A receptor; read-out: 5HT2A Ki): 0.0655 µM

O=C(N[C@H]1CC[C@H](CCN2CCC(c3cccc4c3OCO4)CC2)CC1)C1COc2ccccc2C1 (stereo partly drawn) [Example 60, Chroman-3-carboxylic acid-trans-N-{4-[2-(4-benzo[1,3]dioxol-4-yl-piperidin-1-yl)-ethyl]-cyclohexyl}-amide]
Ki (D3 receptor; [1]): 0.00673 µM
Ki (D2 receptor): 1.05 µM
Ki (5-HT2A receptor; [2]): 0.0218 µM

N#Cc1ccc(C(=O)N[C@H]2CC[C@H](CCN3CCC(c4cccc5c4OCO5)CC3)CC2)cc1 [Example 14, Trans-N-{4-[2-(4-Benzo[1,3]dioxol-4-yl-piperidin-1-yl)-ethyl]-cyclohexyl}-4-cyano-benzamide]
Ki (D3 receptor; [1]): 0.00779 µM
Ki (D2 receptor): 0.153 µM
Ki (5-HT2A receptor; [2]): 0.00902 µM

COC1(C(=O)N[C@H]2CC[C@H](CCN3CCC(c4cccc5c4OCO5)CC3)CC2)CCCCC1 [Example 67, 1-Methoxy-cyclohexanecarboxylic acid-trans-N-{4-[2-(4-benzo[1,3]dioxol-4-yl-piperidin-1-yl)-ethyl]-cyclohexyl}-amide]
Ki (D3 receptor; [1]): 0.0386 µM
Ki (D2 receptor): 0.197 µM
Ki (5-HT2A receptor; [2]): 0.0116 µM

O=C(CC(F)(F)F)N[C@H]1CC[C@H](CCN2CCC(c3cccc4c3OCO4)CC2)CC1 [Example 10, Trans-N-{4-[2-(4-Benzo[1,3]dioxol-4-yl-piperidin-1-yl)-ethyl]-cyclohexyl}-3,3,3-trifluoro-propionamide]
Ki (D3 receptor; [1]): 0.00398 µM
Ki (D2 receptor): 0.209 µM
Ki (5-HT2A receptor; [2]): 0.0181 µM

O=C(N[C@H]1CC[C@H](CCN2CCC(c3cccc4c3OCO4)CC2)CC1)c1ccccc1 [Example 9, Trans-N-{4-[2-(4-Benzo[1,3]dioxol-4-yl-piperidin-1-yl)-ethyl]-cyclohexyl}-benzamide]
Ki (D3 receptor; [1]): 0.00363 µM
Ki (D2 receptor): 0.12 µM
Ki (5-HT2A receptor; read-out: 5HT2A Ki): 0.00514 µM

O=C(Nc1ccc(Cl)cc1)N[C@H]1CC[C@H](CCN2CCC(c3cccc4c3OCO4)CC2)CC1 [Example 77, N-trans-1-{4-[2-(4-Benzo[1,3]dioxol-4-yl-piperidin-1-yl)-ethyl]-cyclohexyl}-3-(4-chloro-phenyl)-urea]
Ki (D3 receptor; [1]): 0.0236 µM
Ki (D2 receptor): 2.71 µM
Ki (5-HT2A receptor; [2]): 0.224 µM

O=C(N[C@H]1CC[C@H](CCN2CCC(c3cccc4c3OCO4)CC2)CC1)c1ccc(F)cc1 [Example 37, Trans-N-{4-[2-(4-Benzo[1,3]dioxol-4-yl-piperidin-1-yl)-ethyl]-cyclohexyl}-4-fluoro-benzamide]
Ki (D3 receptor; [1]): 0.00489 µM
Ki (D2 receptor): 0.234 µM
Ki (5-HT2A receptor; read-out: 5HT2A Ki): 0.0131 µM

O=C(CC1COCCO1)N[C@H]1CC[C@H](CCN2CCC(c3cccc4c3OCO4)CC2)CC1 (stereo partly drawn) [Example 3, Trans-N-{4-[2-(4-Benzo[1,3]dioxol-4-yl-piperidin-1-yl)-ethyl]-cyclohexyl}-2-[1,4]dioxan-2-yl-acetamide]
Ki (D3 receptor; [1]): 0.00888 µM
Ki (5-HT2A receptor; read-out: 5HT2A Ki): 0.0139 µM

O=C(C[C@H]1COCCO1)N[C@H]1CC[C@H](CCN2CCC(c3cccc4c3OCO4)CC2)CC1 (single isomer, unassigned) [Example 4, Trans-N-{4-[2-(4-Benzo[1,3]dioxol-4-yl-piperidin-1-yl)-ethyl]-cyclohexyl}-2-(S) or (R)-[1,4]dioxan-2-yl-acetamide]
Ki (D3 receptor): 0.00979 µM
Ki (5-HT2A receptor): 0.0119 µM

O=C(C[C@@H]1COCCO1)N[C@H]1CC[C@H](CCN2CCC(c3cccc4c3OCO4)CC2)CC1 (single isomer, unassigned) [Example 5, Trans-N-{4-[2-(4-Benzo[1,3]dioxol-4-yl-piperidin-1-yl)-ethyl]-cyclohexyl}-2-(R) or (S)-[1,4]dioxan-2-yl-acetamide]
Ki (D3 receptor): 0.0095 µM
Ki (5-HT2A receptor): 0.017 µM
